In the assay the test system is rat. Nature of the assay: animal or person. The class given is in vivo. To be noted: ip.

`Cc1cnc(NC(=O)C2=C(O)c3ccccc3S(=O)(=O)N2C)s1` [meloxicam]: the ED50 (Rattus norvegicus, 3 h, read-out: ED50 (95% CI), applied alone) worked out at 141 mg/kg. Further, the “analgesic effect in words” value (rat, in vivo) is given as “dose-dependent analgesic effect”.

The ED50 is the dose that gives a 50% effect, or the effect in half of the subjects.

Source of the values: patent US20130310371A1 (priority 2012, published 2013).
